Measured values taken from patent US10954217B2 (priority 2016, dated 2021).

What was measured:
Assay in all cases: biochemical
[1] = biological target: H2 (Homo sapiens (Human), UniProt P25021)
[2] = biological target: Alpha2A (Homo sapiens (Human), UniProt P08913)
[3] = biological target: Alpha2B (Homo sapiens (Human), UniProt P18089)
[4] = biological target: 5-HT2C (Homo sapiens (Human), UniProt P28335)
[5] = biological target: 5-HT2B (Homo sapiens (Human), UniProt P41595)
[6] = biological target: Alpha2C (Homo sapiens (Human), UniProt P18825)
[7] = biological target: 5-HT2A (Homo sapiens (Human), UniProt P28223)
[8] = biological target: D3 (Homo sapiens (Human), UniProt P35462)
[9] = biological target: M5 (Homo sapiens (Human), UniProt P08912)
[10] = biological target: M2 (Homo sapiens (Human), UniProt P08172)
[11] = biological target: M4 (Homo sapiens (Human), UniProt P08173)
[12] = biological target: Alpha1B (Homo sapiens (Human), UniProt P35368)
[13] = biological target: M3 (Homo sapiens (Human), UniProt P20309)
[14] = biological target: KOR (Homo sapiens (Human), UniProt P41145)
[15] = biological target: Alpha1D (Homo sapiens (Human), UniProt P25100)
[16] = biological target: H1 (Homo sapiens (Human), UniProt P35367)
[17] = biological target: D4 (Homo sapiens (Human), UniProt P21917)

Row | SMILES | Ki [1] | Ki [2] | Ki [3] | Ki [4] | Ki [5] | Ki [6] | Ki [7] | Ki [8] | Ki [9] | Ki [10] | Ki [11] | Ki [12] | Ki [13] | Ki [14] | Ki [15] | Ki [16] | Ki [17]
1 | Clc1cc(Cl)cc(CN2Cc3ccc(N4CCOCC4)cc3C2)c1 | 1180 nM | 2340 nM | 6.8 µM | 1380 nM | 702 nM | 4540 nM | – | – | – | – | – | – | – | – | – | – | –
2 | C=CCN1CCN(c2ccc3c(c2)CN(S(=O)(=O)c2cc(Cl)cc(Cl)c2)C3)CC1 | – | – | – | – | – | 168 nM | 513 nM | 220 nM | 1290 nM | 4.2 µM | 1890 nM | 1390 nM | 710 nM | – | – | – | –
3 | CN1CCN(c2ccc3c(c2)CN(S(=O)(=O)c2cc(Cl)cc(Cl)c2)C3)CC1 | – | – | – | 833 nM | – | – | 520 nM | 599 nM | 2090 nM | 3.89 µM | 3510 nM | – | 1960 nM | 8490 nM | 6.47 µM | 487 nM | –
4 | Clc1cc(Cl)cc(CN2CCc3ccc(N4CCOCC4)cc3C2)c1 | – | – | – | – | – | – | – | 3230 nM | – | – | – | – | – | – | – | 1330 nM | 973 nM
5 | CN1CCN(c2ccc3c(c2)CN(S(=O)(=O)c2cc(Cl)cc(Cl)c2)CC3)CC1 | – | – | – | 1080 nM | 206 nM | – | – | 271 nM | 2320 nM | 1.65 µM | 2280 nM | – | 2020 nM | 2560 nM | – | 4780 nM | –
6 | C=CCN1CCN(c2ccc3c(c2)CN(S(=O)(=O)c2cc(Cl)cc(Cl)c2)CC3)CC1 | – | – | – | – | 397 nM | – | – | 107 nM | 3580 nM | – | – | – | 1950 nM | 2200 nM | 3.5 µM | 241 nM | –
